# Reference: US20200369728A1, “PEPTIDOMIMETIC MACROCYCLES AND USES THEREOF” (Aileron Therapeutics, Inc., priority 2015, published 2020)
# “Also recorded” adds a separate entry of the source. Where two headings read alike, the source gives them in different places.
# T1: MDMX (In-house, 40 kD) (UniProt O15151 1-120, limits assumed)
# T1 construct: also called MDM4
# T1 sequence (looked up): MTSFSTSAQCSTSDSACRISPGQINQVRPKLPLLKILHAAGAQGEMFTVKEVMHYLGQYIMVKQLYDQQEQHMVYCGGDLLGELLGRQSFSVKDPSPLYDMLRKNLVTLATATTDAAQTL
# Tests used:
# A375 = assay: Cell viability, A375 melanoma cell line (single agents and combinations); format: cell-based, human; settings: for combination effect with PLX4032 (Zelboraf, vemurafenib): B-Raf-mutant melanoma cell line A375
# p53-pathway [1] = assay: Western blot of p53-pathway, Molm13, OCI/AML3, Molm14 and ML2 cell lines; format: cell-based; settings: Molm13, OCI/AML3, Molm14 and ML2, 1.0 μM
# Method: The Molm13, OCI/AML3, Molm14 and ML2 cell lines were treated with vehicle or 1.0 μM Aileron peptide (FIG. 1B).
# Mel-Ho (V600E) = assay: Combination with PLX4032 in Mel-Ho; format: cell-based
# MV4-11 = assay: WST-1 / MTT cell viability, MV4-11
# Method: Initially, various MV4-11 cell numbers were plated and evaluated 3-7 days later to determine the optimal number of cells to be plated and treatment duration.
# Cells were evaluated for viability by WST-1 assay or MTT assay 3-7 days after beginning treatment.
# (§2) A drug combination index plot was used to assess the synergistic, additive, or antagonistic properties of each combination treatment. […] Combination index (CI) values were calculated using the CompuSyn software. The data were expressed as log(CI).
# [2] = test system: Molm13, OCI/AML3, Molm14, HL60 and ML2 cell lines; assay: Clonogenicity assay on AML cell lines; format: cell-based; settings: p53 wild type cell lines, 1.0 μM
# Method: A clonogenicity assay was then performed and the number of clonies was counted (FIG. 6).
# [3] = test system: Molm13, OCI/AML3, Molm14, HL60 and ML2 cell lines; assay: Apoptosis assay of AML cell lines (DAPI / Annexin-V FACS); format: cell-based; settings: p53 wild type AML cell lines, 1.0, 5.0 or 10.0 μM
# Method: (§1) Cells were probed with DAPI and a FITC-labeled anti-Annexin-V antibody. FACS analysis was performed to determine the number of viable cells and the number of cells in early apoptosis, late apoptosis and undergoing necrosis and the results were plotted.
# p53-pathway [4] = assay: mRNA expression of p21, MDM2, Puma, Bax, Gadd45a in Molm13 and Oci/AML3; format: cell-based; settings: Molm13 and Oci/AML3, 0.1-10.0 μM
# Description: Expression levels were normalized to GAPDH mRNA expression levels.
# MOLT-3 = assay: WST-1 / MTT cell proliferation assay, MOLT-3; format: cell-based, human
# Method: All media were supplemented with 10% (v/v) fetal calf serum, 100 units penicillin and 100 μg/ml streptomycin at 37° C. and 5% CO2.
# One day prior to assaying, cells were trypsinized, counted and seeded at pre-determined densities in 96-well plates as follows: MCF-7, 5000 cells/well/200 μl; MOLT-3, 30,000 cells/well/200 μl. […] The WST-1 variant of the MTT assay was used to measure cell viability according to the manufacturer's protocol. WST-1 is a cell-impermeable, sulfonated tetrazolium salt that can be used to examine cell viability without killing the cells.
# Initially, various MOLT-3 cell numbers were plated and evaluated 3-7 days later to determine the optimal number of cells to be plated and treatment duration.
# Cells were evaluated for viability by WST-1 assay or MTT assay 3-7 days after beginning the sequential treatment (FIGS. 33 and 34).
# Cells were evaluated for viability by WST-1 assay or MTT assay 3-7 days after beginning treatment with rituximab (FIGS. 68B and 69B) or romidepsin (FIGS. 71B and 72B).
# DOHH-2 = assay: WST-1 / MTT cell viability, DOHH-2; format: cell-based, human
# Method: Initially, various DOHH-2 cell numbers were plated and evaluated 3-7 days later to determine the optimal number of cells to be plated and treatment duration.
# as §2
# MCF-7 = assay: CyQUANT cell viability, MCF-7; format: cell-based, human; settings: MCF-7, sequential treatment, 72 hrs
# Method: Cells were also evaluated for viability using the CyQUANT method after beginning treatment (FIGS. 78A and 79A). Cells were evaluated for viability using the CyQUANT method after beginning the simultaneous treatments (FIGS. 78B and 79B). […] The data were expressed as log(CI).
# The anticancer activity of the combination treatment was assessed based on the order of addition of the drugs.
# p53 = p53 stabilization in AML cells (Western blot, dose and time); format: cell-based; settings: AML p53 wild type cell lines, 0.1-10.0 μM, 24, 48 or 72 hrs
# Description: (§3) Lysates were subjected to SDS-PAGE and probed by Western blotting with antibodies specific to MDM2, p53, p21, and β-Actin.
# primary AML cell line [5] = assay: Clonogenicity assay on primary AML cell lines; format: cell-based; settings: 0.1-1.0 μM
# Method: A clonogenicity assay was then performed and the number of clonies was counted.
# p53-pathway [6] = assay: Western blot of p53-pathway, primary AML cells; format: cell-based; settings: 1.0 or 5.0 μM
# Description: as §3
# primary AML cell line [7] = assay: Apoptosis assay on primary AML cell lines; format: cell-based; settings: primary AML cells, 1.0, 5.0 or 10.0 μM
# Method: as §1
# AML cell lines = assay: Cellular proliferation in AML cells treated with Ara-C; format: cell-based; settings: Ara-C alone
# [8] = MCF-7 breast cancer xenograft study, body weight and deaths; format: in vivo, mice
# Description: A negative control stapled peptide.
# [9] = test system: MCF-7 breast cancer xenograft; assay: MCF-7 breast cancer xenograft study, tumor growth inhibition; settings: 30 mg/kg three times per week iv
# Method: This formulation was prepared once for the duration of the study.
# Each group was assigned to a different treatment regimen.
# During the dosing period the mice were weighed and tumors measured 1-2 times per week.
# SJSA-1 = assay: Cell viability assay (MTT), SJSA-1
# FIGURE 19 = assay: FIGURE 19
# Description: Table printed on a drawing sheet, FIGURE 19
# First reader's note: The table is an inset in a plot of solubility against the number of amino acids C-terminal to the cross-link.
# MDMX (In-house, 40 kD) [10] = biological target: T1, MDMX (In-house, 40 kD); assay: competitive fluorescence polarization vs FAM-labeled linear peptide; column Ki (MDMX); grade means >1000 nM
# MDMX (In-house, 40 kD) [11] = biological target: T1, MDMX (In-house, 40 kD); assay: competitive fluorescence polarization vs FAM-labeled linear peptide; column IC50 (MDMX); grade means >1000 nM
# [12] = MV4-11, sequential treatment, 72 hrs
# [13] = DOHH-2, sequential treatment, 72 hrs
molecule,measurement,setting,value
CC(=O)N[C@@H](CC(C)C)C(=O)N[C@H](C(=O)N[C@@H](Cc1ccccc1)C(=O)N[C@]1(C)CCCCCCC=CCCC[C@@](C)(C(=O)N[C@@H](C)C(=O)N[C@@H](C)C(=O)N[C@@H](C)C(=O)N[C@@H](C)C(=O)N[C@@H](C)C(=O)N[C@H](C)C(N)=O)NC(=O)[C@H](CC(C)C)NC(=O)[C@H](CCC(N)=O)NC(=O)[C@H](C)NC(=O)[C@H](Cc2c[nH]c3ccccc23)NC(=O)[C@H](Cc2ccc(O)cc2)NC(=O)[C@H](CCC(=O)O)NC1=O)[C@@H](C)O [Aileron peptide 1],"combination effect with PLX4032 (Zelboraf, vemurafenib)",A375,synergy
same,"combination effect with PLX4032 (Zelboraf, vemurafenib)",A375; listed as AP1,additive or better complimentarity
same,EC50,"A375; single agent, read-out: EC50 on A375 cells",70 nM
same,activation of the p53-pathway,p53-pathway [1],activates the p53-pathway
same,combination effect with PLX4032 (Zelboraf),Mel-Ho (V600E),synergy
same,"order of addition: effect on cell growth, AP1 and Ara-C",MV4-11; [12],suppressed MV4-11 cell growth with or without Ara-C
same,"order of addition: effect on cell growth, AP1 and azacitidine",MV4-11; [12],suppressed MV4-11 cell growth with or without azacitidine
same,"order of addition: effect on cell growth, AP1 and decitabine",MV4-11; [12],suppressed MV4-11 cell growth with or without decitabine
same,"order of addition: effect on cell growth, AP1 and midostaurin",MV4-11; [12],suppressed MV4-11 cell growth with or without midostaurin
same,combination effect of AP1 with Ara-C,"MV4-11; MV4-11, listed as AP1",complementary in vitro anticancer activity; also recorded: mostly additive with some degree of synergy; also recorded: additive or better complimentarity
same,combination effect of AP1 with azacitidine,"MV4-11; MV4-11, listed as AP1",complementary in vitro anticancer activity; also recorded: mostly additive with some synergy; also recorded: additive or better complimentarity
same,combination effect of AP1 with decitabine,"MV4-11; MV4-11, listed as AP1",complementary in vitro anticancer activity; also recorded: mostly additive; also recorded: additive or better complimentarity
same,combination effect of AP1 with midostaurin,"MV4-11; MV4-11, listed as AP1",complementary in vitro anticancer activity; also recorded: mostly synergistic; also recorded: additive or better complimentarity
same,clonogenic capacity,[2],inhibited their clonogenic capacity
same,apoptotic cell death,[3],induces apoptotic cell death
same,activation of the p53-pathway (mRNA normalized to GAPDH),p53-pathway [4],activates the p53-pathway
same,combination effect of AP1 with romidepsin,MOLT-3,enhances Aileron peptide 1 inhibition of cancer cell proliferation and cell killing
same,combination effect of AP1 with romidepsin,MOLT-3; listed as AP1,complementary in vitro anticancer activity; also recorded: mostly additive complimentarity
same,combination effect of AP1 with rituximab,"DOHH-2; DOHH-2 (figure legends), listed as AP1",complementary in vitro anticancer activity; also recorded: additive or better complimentarity
same,"order of addition: effect on cell growth, AP1 and CTX",DOHH-2; [13],suppressed DOHH-2 cell growth with or without CTX
same,"order of addition: effect on cell growth, AP1 and VCR",DOHH-2; [13],suppressed DOHH-2 cell growth with or without VCR
same,combination effect of AP1 with CTX,"DOHH-2; DOHH-2, listed as AP1",complementary in vitro anticancer activity; also recorded: synergistic; also recorded: additive or better complimentarity
same,combination effect of AP1 with VCR,"DOHH-2; DOHH-2, listed as AP1",complementary in vitro anticancer activity; also recorded: mostly synergistic; also recorded: additive or better complimentarity
same,EC50,"DOHH-2; single agent, read-out: EC50 on DOHH-2 cells",60 nM
same,"order of addition: effect on cell growth, AP1 and palbociclib",MCF-7,suppressed MCF-7 cell growth with or without palbociclib
same,p53 stabilization,p53,stabilizes p53 in a time and dose dependant manner
same,clonogenic capacity,primary AML cell line [5],inhibited its clonogenic capacity to a higher extent
same,activation of the p53-pathway,p53-pathway [6],activates the p53-pathway
same,apoptotic cell death,primary AML cell line [7],induces apoptotic cell death
"Nc1ccn([C@@H]2O[C@H](CO)[C@@H](O)[C@@H]2O)c(=O)n1 [Ara-C, cytarabine, reference compound]","order of addition: effect on cell growth, AP1 and Ara-C",MV4-11; [12],suppressed MV4-11 cell growth with or without AP1
same,proliferation of AML cell lines,AML cell lines,inhibits proliferation of AML cell lines
CC(=O)N[C@@H](CC(C)C)C(=O)N[C@H](C(=O)N[C@@H](C)C(=O)N[C@]1(C)CCCCCCC=CCCC[C@@](C)(C(=O)N[C@@H](CO)C(=O)N[C@@H](C)C(=O)N[C@@H](C)C(N)=O)NC(=O)[C@H](CC2CCC2)NC(=O)[C@H](CCC(N)=O)NC(=O)[C@H](C)NC(=O)[C@H](Cc2c[nH]c3ccccc23)NC(=O)[C@H](Cc2ccc(O)cc2)NC(=O)[C@H](CCC(=O)O)NC1=O)[C@@H](C)O [SP252],% BW Change,"[8]; 30 mg/kg 3x/wk iv, Days 18-39",+3.3%
same,No. with ≥10% BW Loss,"[8]; 30 mg/kg 3x/wk iv, Days 18-39",0/10
same,No. with ≥20% BW Loss or death,"[8]; 30 mg/kg 3x/wk iv, Days 18-39",0/10
same,tolerability of dosing regimen,[8]; 30 mg/kg three times per week iv,well-tolerated with no body weight loss or deaths noted
same,TGI by Day 32,[9],88%
same,activity in the SJSA-1 in vitro viability assay,SJSA-1,no activity
CC(=O)N[C@@H](CC(C)C)C(=O)N[C@H](C(=O)N[C@@H](Cc1ccccc1)C(=O)N[C@]1(C)CCCCCCC=CCCC[C@@](C)(C(=O)N[C@@H](C)C(=O)N[C@@H](C)C(=O)N[C@@H](C)C(=O)N[C@@H](C)C(=O)N[C@@H](C)C(=O)N[C@@H](C)C(=O)N[C@H](C)C(N)=O)NC(=O)[C@H](CC(C)C)NC(=O)[C@H](CCC(N)=O)NC(=O)[C@H](C)NC(=O)[C@H](Cc2c[nH]c3ccccc23)NC(=O)[C@H](Cc2ccc(O)cc2)NC(=O)[C@H](C)NC1=O)[C@@H](C)O [SP316],Solubility,FIGURE 19,5000 µg/mL
"LTAAEYWAQAASAA (not fully specified; N-terminal acetyl (Ac); $r8 = alpha-Me R8-octenyl-alanine and $ = alpha-Me S5-pentenyl-alanine joined by an all-carbon crosslinker; Cba = cyclobutyl alanine; C-terminal amide (NH2), also called Ac-LTA$r8EYWAQCba$SAA-NH2) [SP252]",Ki,"MDMX (In-house, 40 kD) [10]",> 1000 nM
same,IC50,"MDMX (In-house, 40 kD) [11]",> 1000 nM
"ETFAEYWAQAASAA (not fully specified; N-terminal Pam cap (abbreviation not explained in the filing); $r8 = alpha-Me R8-octenyl-alanine and $ = alpha-Me S5-pentenyl-alanine joined by an all-carbon crosslinker; Cba = cyclobutyl alanine; C-terminal amide (NH2), also called Pam-ETF$r8EYWAQCba$SAA-NH2) [SP250]",Ki,"MDMX (In-house, 40 kD) [10]",> 1000 nM
same,IC50,"MDMX (In-house, 40 kD) [11]",> 1000 nM
